Reference: US8252832B2, “Kinesin inhibitors as cancer therapeutics” (Novartis AG, priority 2007, dated 2012)

What was measured:
KB3.1 = assay: CellTiter-Glo proliferation, 72 hours; type: cell-based; conditions: Homo sapiens, KB 3-1; Epidermoid, KB3.1, 72 hours
Text: (§1) Cell lines used were as follows: HCT-116 (National Cancer Institute's DCTF Tumor Repository, catalog #NCI-502568, Rockville, Md.), HCT-15 (National Cancer Institute's DCTF Tumor Repository, catalog#NCI-502711, Rockville, Md. available from American Type Tissue Collection, catalog #CLL-225), KB-3-1 (available from DSMZ, Deutsche Sammlung von Mikroorganismen und Zellkulturen GmbH (German Collection of Microorganisms and Cell Cultures—catalog number ACC 158), KB-V1 (available from DSMZ—catalog number ACC 149), AGS (available from American Type Culture Collection, Manassas Va., catalog number CRL-1739™), N87 (available from American Type Culture Collection, Manassas Va., catalog number CRL-5822), Hel92.1.7 (available from American Type Culture Collection, Manassas Va., catalog number TIB 180), K562 (available from American Type Culture Collection, Manassas Va., catalog number CRL-243™), MV4; 11 (American Tissue Culture Collection, Manassas Va., catalog number CRL-9591) and U937 (available from American Type Culture Collection, Manassas Va., catalog number CRL-1593.2).
(§2) Cells were plated in 96-well plates at densities of about 500 cells per well of a 96-well plate and allowed to grow for 24 hours. The cells were then treated with various concentrations of compounds for 72 hours. Then, 100 μl of CellTiter-Glo® reagent was added (Promega Corporation). CellTiter-Glo® is used in a homogeneous method of determining the number of viable cells using the single CellTiter-Glo® reagent to detect ATP (U.S. Pat. Nos. 6,602,677 and 7,241,584) (see Promega product catalog #G7570). Following the addition of the CellTiter-Glo® reagent, the cells were incubated in the dark for 30 minutes. The amount of luminescence was determined for each well using a Wallac Trilux plate reader, which correlates with the number of cells per well. The number of viable cells in the wells that receive only DMSO (0.5%) served as an indication of 0% inhibition, while wells without cells served as 100% inhibition of cell growth. […] This broad activity is consistent with a compound that is a mitotic inhibitor.

Hel92.1.7 = assay: CellTiter-Glo proliferation, 72 hours; type: cell-based; conditions: Homo sapiens, HEL 92.1.7; Leukemia, Hel92.1.7, 72 hours
Text: as §1, §2

HCT-116 = assay: CellTiter-Glo proliferation, 72 hours; type: cell-based; conditions: Homo sapiens; Colon, HCT-116, 72 hours
Text: as §1, §2

KBV1 = assay: CellTiter-Glo proliferation, 72 hours; type: cell-based; conditions: Homo sapiens, KB-V1; Epidermoid, KBV1, 72 hours
Text: as §1, §2

K562 = assay: CellTiter-Glo proliferation, 72 hours; type: cell-based; conditions: Homo sapiens; Leukemia, K562, 72 hours
Text: as §1, §2

AGS = assay: CellTiter-Glo proliferation, 72 hours; type: cell-based; conditions: Homo sapiens, Gastric
Text: as §1, §2

N87 = assay: CellTiter-Glo proliferation, 72 hours; type: cell-based; conditions: Gastric, N87, 72 hours
Text: as §1, §2

MV4-11 = assay: CellTiter-Glo proliferation, 72 hours; type: cell-based; conditions: Homo sapiens; Leukemia, MV4-11, 72 hours
Text: as §1, §2

U937 = assay: CellTiter-Glo proliferation, 72 hours; type: cell-based; conditions: Homo sapiens, U-937; Leukemia, U937, 72 hours
Text: as §1, §2

[1] = MV4; 11-luc disseminated disease model, host response; type: in vivo, mouse; conditions: q4d × 3, i.v
Experimental: The efficacy study in the disseminated disease model was performed using immunodeficient NOD-SCID female mice approximately 7-8 weeks old (Jackson Laboratories, Bar Harbor, Me.). […] Routine animal care and assurance of welfare were as described above. […] Doses were adjusted to each animal's body weight. […] Approximately 10 minutes prior to imaging, mice were injected i.p. with 150 mg/kg luciferin (Xenogen Corporation, Alameda, Calif.), followed by anesthetization with isoflurane. Photon emission was measured using a charge coupled device camera in the IVIS imaging system (Xenogen Corporation). Briefly, a gray-scale image of the mice was captured, followed by an overlay of a bioluminescence map representing the spatial distribution of photons detected from cleaved luciferin in the cancer cells expressing luciferase. Signal intensity was quantified using a customized version of the IGOR Pro version 4.09A Software (WaveMetrics, Inc., Lake Oswego, Oreg.) called Living Image version 2.50.2 (Xenogen). The sum of all detected photon counts from the dorsal+ventral views was determined. Bioluminescence of cancer cells in the animals was measured by imaging on designated days until the first mice developed hind limb paralysis due to disease burden, the main end point for when to humanely euthanize mice. The day of euthanasia for each mouse was recorded and the remaining percentage of mice surviving was plotted over time (Kaplan-Meier survival analysis). P values were calculated using the log-rank test (GraphPad Prism 4.0 software) to assess differences between treated and control groups (p<0.05 was considered significant). […] Data analysis was performed as described above.

[2] = system: panel of cell lines derived from solid tumors; assay: Solid tumor cell line panel, fraction of surviving cells after 72 hours; type: cell-based
Experimental: Compound IIa was tested against a panel of cell lines derived from solid tumors as described in See also McDermott, U., Sharma, S. V., Dowell, L., Greninger, P., Montagut, C., Lamb, J., Archibald, H., Raudales, R., Tam, A., Lee, D., Rothenberg, S. M., Supko, J. G., Sordella, R., Ulkus, L. E., Iafrate, A. J., Maheswaran, S., Njauw, C. N., Tsao, H., Drew, L., Hanke, J. H., Ma, X. J., Erlander, M. G., Gray, N. S., Haber, D. A., and Settleman, J. (2007), Identification of genotype-correlated sensitivity to selective kinase inhibitors by using high-throughput tumor cell line profiling. Proc. Natl. Acad. Sci. U.S. A 104, 19936-19941 (2007).) Cells were treated with the compound for 72 hours and the fraction of surviving cells, as compared to an untreated control, was reported. Table 17 lists the name of the cell line, the organ of origin, the fraction of surviving cells at the three concentrations tested (0.2 nM, 2.0 nM and 20 nM) and a sensitivity score. The sensitivity score was from 5 (most sensitive) to 1 (least sensitive) and the scoring was as follows: 5=surviving fraction≦0.2 at 0.2 nM; 4=0.2<surviving fraction≦0.5 at 0.2 nM; 3=surviving fraction>0.5 at 0.2 nM and ≦0.5 at 2.0 nM; 2=surviving fraction>0.5 at 2.0 nM and ≦0.5 at 20 nM; 1=surviving fraction>0.5 at 20 nM.

## CC(C)(C)[C@H](c1nc(-c2cc(F)ccc2F)cn1Cc1ccccc1)N(CC[C@H](N)CF)C(=O)CO [Compound IIa]
KB3.1
  GI50: 0.6 nM
Hel92.1.7
  GI50: 0.5 nM
HCT-116
  GI50: 0.1 nM
KBV1
  GI50: 6.5 nM
K562
  GI50: 0.1 nM
AGS
  GI50: 0.2 nM
N87
  GI50: 1 nM
MV4-11
  GI50: 0.2 nM
U937
  GI50: 0.1 nM
[1]; 0.25 mg/kg, D5
  % Max. Δ body weight, (Day): 5.6 ± 1.3%
  Max. Δ body weight (g) (Day): 1.1 ± 0.44 g
[1]; 0.5 mg/kg, D10
  % Max. Δ body weight, (Day): −2.6 ± 2.3%
  Max. Δ body weight (g) (Day): -0.57 ± 0.45 g
[1]; 1 mg/kg, D10
  % Max. Δ body weight, (Day): −4.2 ± 1.7%
  Max. Δ body weight (g) (Day): -0.77 ± 0.32 g
[2]; brain
  average sensitivity score: 3.21
[2]; cervix
  average sensitivity score: 3.00
[2]; ovary
  average sensitivity score: 3.38
[2]; skin
  average sensitivity score: 3.02
[2]; stomach
  average sensitivity score: 3.32
[2]; thyroid
  average sensitivity score: 3.00
